## Nc1ccc(O)cc1F
  melting point: 139 °C

## CC(C)(C)CC(=O)OCC(=O)C12OC(C)(C)OC1CC1C3CCC4=CC(=O)C=CC4(C)C3(F)C(O)CC12C (stereo not drawn)
  melting point: 295 °C

## COc1ccc(-n2c(S)nnc2-c2ccc(OC(F)(F)F)cc2)cc1
  melting point: 178 to 180 °C

## CCCn1c(C(=O)O)cc2c(=O)n(C)c(=O)n(C)c21
  melting point: 139 °C

## O=[N+]([O-])c1ccc(-c2csc3nc4ccccc4n23)cc1
  melting point: 232 to 235 °C

## O=C(O)c1cccc(-c2ncccn2)c1
  melting point: 180 to 182 °C

## Cc1oc(-c2ccc(Cl)cc2)cc1C(=O)Cl
  melting point: 122 to 124 °C

## O=c1n(-c2ccccc2)c(=O)n2n1C1OC3c4ccccc4C1C32 (stereo not drawn)
  melting point: 146 °C

## Oc1cccc(-c2ccccc2)c1
  melting point: 78 °C

## Nc1ncnc2c1ccn2C1OC(CO)C(O)C1O (stereo not drawn)
  melting point: 247 °C

## CC(C)(C)c1cc(C(C)(C)c2ccc(O)c(C(C)(C)C)c2)ccc1O
  melting point: 114 °C

## CC(=O)Oc1ccccc1C(=O)OCC(=O)N(C)CC(N)=O
  melting point: 132 °C

## O=C(O)CCCCC=C(c1ccccc1)c1cccnc1
  melting point: 114 °C

## NC(CCC(=O)O)C(=O)O (stereo not drawn)
  melting point: 205 °C

## COc1ccccc1OC
  melting point: 22.5 °C

## Cc1cc(Cl)c(O)c(Cl)c1
  melting point: 39 °C

## CN1CCC23c4c5ccc(OCCN6CCOCC6)c4OC2C(O)C=CC3C1C5 (stereo not drawn)
  melting point: 91 °C

## CCn1nc(C)cc1C(=O)O
  melting point: 139 °C

## O=C(O)c1cccc(C(=O)c2ccccc2)c1
  melting point: 164 °C

## FC(F)=C(F)C(F)=C(F)F
  melting point: -132 °C

## O=C(O)Cc1ccccc1[N+](=O)[O-]
  melting point: 141 °C

## CN(C)c1ccc(F)cc1
  melting point: 36 °C

## CC12CCC(C(=CC=C3C(=O)C4(C)CCC3C4(C)C)C1=O)C2(C)C
  melting point: 283 to 285 °C

## O=C1Nc2ccccc2CCc2ccccc21
  melting point: 246 to 248 °C

## N#Cc1c(-c2ccc(F)cc2)c(C#N)c(=O)n(N)c1N
  melting point: 304 °C

## CCCCCN=C(N)NNC=C1C=Nc2ccc(CO)cc21
  melting point: 155 °C

## CC(=O)C(C(C)=O)C(c1ccc(C)o1)c1ccc(C)o1
  melting point: 60 °C

## O=C(O)C=Cc1ccc2c(c1)OCO2
  melting point: 242 to 244 °C

## Nc1nc(-c2ccc(Br)cc2)cs1
  melting point: 184 °C

## CCCCCCCCCCCCCCN
  melting point: 83.1 °C

## COc1cc(N=C=S)c(OC)cc1Cl
  melting point: 84 to 86 °C

## Cc1ccc2sc(C(=O)Cl)cc2c1
  melting point: 58 to 60 °C

## O=Cc1ccc2nonc2c1
  melting point: 58 °C

## CC(=C(C)c1ccccc1)c1ccccc1
  melting point: 64 to 66 °C

## O=C(O)CN=C(S)C(=S)NCC(=O)O
  melting point: 220 °C

## CCCN(CCOc1c(Cl)cc(Cl)cc1Cl)C(=O)n1ccnc1
  melting point: 48.3 °C

## O=[N+]([O-])c1cc([N+](=O)[O-])c(C2CO2)cc1C1CO1 (stereo not drawn)
  melting point: 153 to 154 °C

## N#CCOc1cccc(Cl)c1
  melting point: 29 °C

## COC1CCCCCCCCCCC1
  melting point: 8 °C

## O=[N+]([O-])c1ccc(C=NN(c2ccccc2)P(=O)(N2CC2)N2CC2)cc1
  melting point: 150 °C

## Cc1nc(-c2ccccn2)nc(Cl)c1Cl
  melting point: 127 to 129 °C

## CCOC1=NN(c2ccc([N+](=O)[O-])cc2)C(=O)C1
  melting point: 142 °C

## CC#CCCCCC
  melting point: -61.6 °C

## Nc1nc2ccccc2n1Cc1ccccc1
  melting point: 200 to 204 °C

## OCCC(F)(F)C(F)(F)C(F)(F)C(F)(F)C(F)(F)C(F)(F)F
  melting point: -35 °C

## CC1(C)OC(=O)C(=NNc2ccc(O)cc2)C(=O)O1
  melting point: 238 °C

## N#Cc1cc(Cl)cc(Cl)c1N
  melting point: 120 to 126 °C

## O=[N+]([O-])c1c(Cl)c(Cl)c(Cl)c(Cl)c1NCc1ccccc1
  melting point: 96 to 97 °C

## C=CC12CN(C)C3C4COC(CC41)C1(C(=O)Nc4ccccc41)C32 (stereo not drawn)
  melting point: 178 °C

## Cc1ccccc1Oc1ccccc1
  melting point: 21.7 °C

## O=C(CCCc1ccccc1)c1ccccc1
  melting point: 55 to 59 °C

## CC(CCC(=O)O)C1CCC2C3CCC4CC(=O)CCC4(C)C3CC(O)C12C (stereo not drawn)
  melting point: 107 to 109 °C

## CCCCCC(N)P(=O)(O)O (stereo not drawn)
  melting point: 265 to 268 °C

## NCc1cccc(-c2ccccc2)c1
  melting point: 28 to 30 °C

## CCN(CC)CCOC(=O)C(O)(c1ccccc1)c1ccccc1
  melting point: 51 °C

## CC(C)CCCC(C)C1CCC2C3CC=C4CC(OC(=O)Cc5ccc(N(CCCl)CCCl)cc5)CCC4(C)C3CCC12C (stereo not drawn)
  melting point: 90 °C

## CC(C)NCC1CCc2cc(CO)c([N+](=O)[O-])cc2N1 (stereo not drawn)
  melting point: 148 °C

## COc1c(C(C)(C)C)cc([N+](=O)[O-])c(C)c1[N+](=O)[O-]
  melting point: 85 °C

## COc1ccc(/N=N/c2sc(CC#N)nc2C)cc1
  melting point: 158 °C

## O=[N+]([O-])c1ccc(CS(=O)(=O)Cl)cc1
  melting point: 91 to 92 °C

## CCNc1ccc2c(C(F)(F)F)cc(=O)oc2c1
  melting point: 158 to 159 °C

## O=[N+]([O-])c1cc([N+](=O)[O-])c(OCCO)cc1OCCO
  melting point: 136 °C

## CC12CCC(C(=Cc3ccccc3)C1=O)C2(C)C (stereo not drawn)
  melting point: 97 °C

## O=c1cc(-c2ccccc2)oc2cc(O)ccc12
  melting point: 246 °C

## CC1(C)C2CCC13CS(=O)(=O)N[C@H]3C2 (stereo partly drawn)
  melting point: 181 to 185 °C

## O=C(O)C1(O)CC(O)C(O)C(O)C1 (stereo not drawn)
  melting point: 166 to 168 °C

## O=NN(CCCl)C(=O)NCCCl
  melting point: 31 °C

## CC(C)(C)OC(=O)N1CCN(Cc2ccc(C(=O)O)cc2)CC1
  melting point: 196 to 204 °C

## Nc1c(Br)cc(Br)cc1C(F)(F)F
  melting point: 42 °C

## Sc1nccn1-c1cc(Cl)ccc1Cl
  melting point: 273 °C

## C[C@]12CC[C@H]3O[C@H]3[C@@H]1CC[C@@H]1[C@@H]2CC[C@]2(C)C(=O)CC[C@@H]12
  melting point: 158 °C

## CNS(=O)(=O)Cc1ccc2[nH]cc(CCN(C)C)c2c1
  melting point: 169 °C

## Cc1oncc1I
  melting point: 27 to 28 °C

## COc1ccccc1-c1ccc(C=C(C(C)=O)C(C)=O)o1
  melting point: 145 to 146 °C

## NC(CC(F)(F)F)C(=O)O (stereo not drawn)
  melting point: 256 to 258 °C

## NC(=S)c1ccc2c(c1)OCCO2
  melting point: 140 to 144 °C

## O=c1c(Cl)c(Cl)cnn1Cc1ccccc1F
  melting point: 110 to 112 °C

## O=[N+]([O-])c1cnc(NC2=NCCN2)s1
  melting point: > 250 °C

## Cc1ccc(OP2(=S)Oc3ccc(Cl)cc3Sc3cc(Cl)ccc3O2)c(C)c1
  melting point: 149 °C

## O=C(N[C@H]1CCCC[C@H]1C(=O)O)OCc1ccccc1 (relative stereo)
  melting point: 130 to 136 °C

## C=C1C(=O)C23C(OC)CC4C5(C)CCCC4(COC5)C2C(OC(C)=O)CC1C3O (stereo not drawn)
  melting point: 183 °C

## N#CC1=C(C#N)C(=O)C(NCc2ccccc2)=C(Cl)C1=O
  melting point: 232 to 234 °C

## CCOC(=O)c1[nH]c2ccccc2c1C
  melting point: 130 to 133 °C

## COc1cc(C)c(CCl)cc1CCl
  melting point: 78 °C

## COc1nc(C)nc(N)n1
  melting point: 260 °C

## COC1C(C2COC3(CCCCC3)O2)OC2OC3(CCCCC3)OC21 (stereo not drawn)
  melting point: 35 to 38 °C

## COc1ccc(S(N)(=O)=O)c(OC)c1
  melting point: 168 °C

## Nc1cccc(S(=O)(=O)c2cccc(N)c2)c1
  melting point: 172 °C

From a melting point compilation (Tetko et al.)
